From PubChem BioAssay AID1963971 (Molecular Pharmacology Branch, DTP, NCI, 2024)

Tested on: 953936-095-R-J2-PDC spheroids with HUVEC/MSC, viability
Experiment: Anticancer human tumor 953936-095-R-J2-PDC patient-derived cervical squamous cell carcinoma cell line growth inhibition [PI3K]
Settings: for IC50: curve of first compound; for viability, T/C: stronger effect = lower value; active = viability on the fitted dose curve at most 10% of control; inactive = the rest
Description: Combinatorial screen of targeted agents with the PI3K inhibitors inavolisib, alpelisib, duvelisib, and copanlisib in multi-cell type tumor spheroids
A high-throughput screen of multi-cell type tumor spheroids was designed to identify active combinations of targeted small molecules and PI3K pathway inhibitors. Complex spheroids include a stromal component modeled by human endothelial cells (HUVEC) and fibroblasts modeled by human mesenchymal stem cells (MSCs). The concentration ranges selected for each drug and investigational agent were based upon clinically achievable concentrations if the clinical Cmax of the agent was known.
Compounds. The drugs and investigational agents: inavolisib (NSC800729), alpelisib (NSC765974), duvelisib (NSC772469), copanlisib (NSC816437), ipatasertib (NSC767898), afuresertib (NSC778305), talazoparib (NSC767125), sapanisertib (NSC764658), selumetinib (NSC741078), tovorafenib (DAY101, NSC766906), vemurafenib (NSC761431), ravoxertinib (NSC781343), sotorasib (NSC818433), MRTX1133 (NSC 836407), abemaciclib (NSC 768073), palbociclib (NSC758247), venetoclax (NSC 766270), SY5609 (NSC837396), enzalutamide (NSC755605), and darolutamide (NSC825331), were obtained from the National Cancer Institute (NCI) Developmental Therapeutics Program Chemical Repository. The FDA-approved anticancer drug set is available from the NCI Developmental Therapeutics Program. […] The stock solutions were prepared in dimethyl sulfoxide (DMSO, Sigma-Aldrich, St. Louis, MO, cat. D2650) at 800-fold the tested concentration and stored at -70 degrees C prior to their use. All drugs and investigational agents were tested over a range starting from a high concentration at or near the clinical Cmax and decreasing in half-log increments. If the clinical Cmax for an agent had not been determined, the highest concentration tested was 10 microM.
Cell Culture. All cells were maintained in an incubator at 37 degrees C and 5% CO2 with 95% humidity. The PDC lines were cultured according to standard operating procedures established by the NCI PDMR (https://pdmr.cancer.gov/sops/default.htm). All PDCs were thawed and cultured in Matrigel-coated flasks prepared with a working solution of 1X Ham's F-12 nutrient mix, without supplementation (Invitrogen, Waltham, MA, cat. 11765054), 100 U/mL penicillin-streptomycin (Invitrogen, cat. 15140122), and 2.5% Matrigel (Corning Inc., Corning, NY, cat. 354248) for the first three passages. The 354836-022-R-J1-PDC, 475296-252-R-J1-PDC, and 997726-040-R-J2-PDC lines were cultured in 6A media, which includes advanced DMEM/F-12 (Thermo Fisher Scientific, cat. 12634028), 10 mM HEPES (Thermo Fisher Scientific, cat. 15630080), 1X GlutaMAX supplement (Thermo Fisher Scientific, cat. 35050061), 0.1 mg/mL primocin (InvivoGen, San Diego, CA, cat. ant-pm-2), 10% defined fetal bovine serum, heat inactivated (HyClone Laboratories Inc., Logan, UT, cat. SH30070.03HI), 50% L-WRN conditioned media (ATCC, cat. CRL-3276), 1.25 mM N-Acetyl-L-cysteine (Sigma-Aldrich, cat. A9165), 10 mM nicotinamide (Sigma-Aldrich, cat. N0636), 1X B-27 supplement (Thermo Fisher Scientific, cat. 17504044), 1X N-2 supplement (Thermo Fisher Scientific, cat. 17502048), and 10 microM Y-27632 dihydrochloride (Tocris Bioscience, Bristol, United Kingdom, cat. 1254). The 624824-186-R-J2-PDC line was cultured in 6C/Colon 1B media, which includes all 6A media components plus 50 ng/mL human EGF recombinant protein (Thermo Fisher Scientific, cat. PHG0311). […]

[1] = second compound 0.00316 µM, first compound 0.0316 µM
[2] = second compound 0.00316 µM, first compound 0.1 µM
[3] = second compound 0.00316 µM, first compound 0.316 µM
[4] = second compound 0.00316 µM, first compound 1 µM
[5] = second compound 0.00316 µM, first compound 3.16 µM
[6] = second compound 0.00316 µM, first compound 10 µM
[7] = second compound 0.01 µM, first compound 0.0316 µM
[8] = second compound 0.01 µM, first compound 0.1 µM
[9] = second compound 0.01 µM, first compound 0.316 µM
[10] = second compound 0.01 µM, first compound 1 µM
[11] = second compound 0.01 µM, first compound 3.16 µM
[12] = second compound 0.01 µM, first compound 10 µM
[13] = second compound 0.0316 µM, first compound 0.0316 µM
[14] = second compound 0.0316 µM, first compound 0.1 µM
[15] = second compound 0.0316 µM, first compound 0.316 µM
[16] = second compound 0.0316 µM, first compound 1 µM
[17] = second compound 0.0316 µM, first compound 3.16 µM
[18] = second compound 0.0316 µM, first compound 10 µM
[19] = second compound 0.1 µM, first compound 0.0316 µM
[20] = second compound 0.1 µM, first compound 0.1 µM
[21] = second compound 0.1 µM, first compound 0.316 µM
[22] = second compound 0.1 µM, first compound 1 µM
[23] = second compound 0.1 µM, first compound 3.16 µM
[24] = second compound 0.1 µM, first compound 10 µM
[25] = second compound 0.316 µM, first compound 0.0316 µM
[26] = second compound 0.316 µM, first compound 0.1 µM
[27] = second compound 0.316 µM, first compound 0.316 µM
[28] = second compound 0.316 µM, first compound 1 µM
[29] = second compound 0.316 µM, first compound 3.16 µM
[30] = second compound 0.316 µM, first compound 10 µM
[31] = second compound 1 µM, first compound 0.0316 µM
[32] = second compound 1 µM, first compound 0.1 µM
[33] = second compound 1 µM, first compound 0.316 µM
[34] = second compound 1 µM, first compound 1 µM
[35] = second compound 1 µM, first compound 3.16 µM
[36] = second compound 1 µM, first compound 10 µM
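Note: spheroids exposed to compounds for seven days before read-out.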

CCCS(=O)(=O)Nc1ccc(F)c(C(=O)c2c[nH]c3ncc(-c4ccc(Cl)cc4)cc23)c1F + CC(Nc1ccc2c(c1)OCCn1cc(N3C(=O)OCC3C(F)F)nc1-2)C(N)=O
4.77 µM: IC50 (second compound 0.0316 µM)
4.76 µM: IC50 (second compound 0.01 µM)
5.19 µM: IC50 (second compound 0.00316 µM)
< 0.0316 µM: IC50 (second compound 0.316 µM) | IC50 (second compound 1 µM)
3.26 µM: IC50 (second compound 0.1 µM)
active: viability, T/C [6] 0.81% | viability, T/C [12] 0.48% | viability, T/C [18] 3.87% | viability, T/C [24] 0.85% | viability, T/C [30] 0.86%
inactive: viability, T/C [1] 93.9% | viability, T/C [2] 101% | viability, T/C [3] 104% | viability, T/C [4] 111% | viability, T/C [5] 87.3% | viability, T/C [7] 91.7% | viability, T/C [8] 94.8% | viability, T/C [9] 96.4% | viability, T/C [10] 98.7% | viability, T/C [11] 77.1% | viability, T/C [13] 82% | viability, T/C [14] 78.7% | viability, T/C [15] 78.7% | viability, T/C [16] 81.9% | viability, T/C [17] 75.6% | viability, T/C [19] 56.3% | viability, T/C [20] 58.7% | viability, T/C [21] 59% | viability, T/C [22] 56.1% | viability, T/C [23] 51.5% | viability, T/C [25] 34% | viability, T/C [26] 34% | viability, T/C [27] 35.5% | viability, T/C [28] 35.8% | viability, T/C [29] 27.4% | viability, T/C [31] 21.7% | viability, T/C [32] 23.6% | viability, T/C [33] 23.1% | viability, T/C [34] 26% | viability, T/C [35] 17.9% | viability, T/C [36] 0.87%

CNC(=O)c1ccc(N2C(=S)N(c3ccc(C#N)c(C(F)(F)F)c3)C(=O)C2(C)C)cc1F + CC(Nc1ccc2c(c1)OCCn1cc(N3C(=O)OCC3C(F)F)nc1-2)C(N)=O
4.15 µM: IC50 (second compound 0.1 µM)
> 10 µM: IC50 (second compound 0.00316 µM) | IC50 (second compound 0.01 µM) | IC50 (second compound 0.0316 µM)
< 0.0316 µM: IC50 (second compound 0.316 µM) | IC50 (second compound 1 µM)
inactive: viability, T/C [1] 89.1% | viability, T/C [2] 103% | viability, T/C [3] 90.5% | viability, T/C [4] 87.3% | viability, T/C [5] 88.1% | viability, T/C [6] 77.5% | viability, T/C [7] 93.4% | viability, T/C [8] 92.7% | viability, T/C [9] 90.3% | viability, T/C [10] 84.4% | viability, T/C [11] 90.5% | viability, T/C [12] 88.6% | viability, T/C [13] 75.9% | viability, T/C [14] 78.6% | viability, T/C [15] 87% | viability, T/C [16] 71% | viability, T/C [17] 74.5% | viability, T/C [18] 71.4% | viability, T/C [19] 60.7% | viability, T/C [20] 55.5% | viability, T/C [21] 57.2% | viability, T/C [22] 53.4% | viability, T/C [23] 50.5% | viability, T/C [24] 47.8% | viability, T/C [25] 32.5% | viability, T/C [26] 35.6% | viability, T/C [27] 35.1% | viability, T/C [28] 36.4% | viability, T/C [29] 33.3% | viability, T/C [30] 31.5% | viability, T/C [31] 22.4% | viability, T/C [32] 22.8% | viability, T/C [33] 21.5% | viability, T/C [34] 21.8% | viability, T/C [35] 24.1% | viability, T/C [36] 23%
